Experimental data: ChEMBL document CHEMBL1201862, “PubChem BioAssay data set” (2004)
Active and inactive are the calls of the source.

What was measured:
CHO-K1 = experiment: (§1) Counterscreen for antagonists of the orexin 1 receptor (OX1R; HCRTR1): Homogeneous time resolved fluorescence (HTRF)-based cell-based dose response assay to identify antagonists of the parental CHO-K1 cell line. [Related pubchem assays (depositor defined):AID434989, AID435008, AID463079, AID485270, AID492963, AID492964, AID492965, AID493232, AID504699, AID504701]; format: functional; details: Cricetulus griseus
[1] = as §1, with “Fluorescence-based” for “Homogeneous time resolved fluorescence (HTRF)-based”, “cell-based high throughput” for “cell-based”, “CHO” for “CHO-K1”; format: functional
[2] = biological target: T1, Orexin/Hypocretin receptor type 1 (Homo sapiens, UniProt O43613); experiment: Homogeneous Time Resolved Fluorescence (HTRF)-based cell-based high throughput dose response assay for antagonists of the orexin 1 receptor (OX1R; HCRTR1). [Related pubchem assays (depositor defined):AID434989, AID435008, AID463079, AID485270, AID492963, AID492964, AID492965, AID493232, AID504717, AID504718]; format: functional
T1 sequence (O43613 whole entry): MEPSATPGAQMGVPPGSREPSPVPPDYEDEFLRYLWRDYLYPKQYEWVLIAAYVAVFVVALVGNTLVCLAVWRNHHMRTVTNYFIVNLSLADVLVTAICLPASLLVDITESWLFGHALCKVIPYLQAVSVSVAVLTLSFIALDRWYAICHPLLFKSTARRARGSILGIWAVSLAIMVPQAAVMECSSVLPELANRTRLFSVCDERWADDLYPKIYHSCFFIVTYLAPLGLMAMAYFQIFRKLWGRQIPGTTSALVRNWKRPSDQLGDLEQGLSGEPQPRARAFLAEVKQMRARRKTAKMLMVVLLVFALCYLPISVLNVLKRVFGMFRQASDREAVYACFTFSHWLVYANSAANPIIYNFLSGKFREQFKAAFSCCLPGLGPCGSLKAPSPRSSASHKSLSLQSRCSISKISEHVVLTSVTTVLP

[3] = biological target: T1, Orexin/Hypocretin receptor type 1; experiment: Fluorescence-based cell-based high throughput dose response assay for antagonists of the orexin 1 receptor (OX1R; HCRTR1). [Related pubchem assays (depositor defined):AID434989, AID435008, AID463079, AID485270, AID492963, AID492964, AID492965, AID493232, AID504717, AID504718]; format: functional
Orexin receptor type 2 [4] = biological target: T2, Orexin receptor type 2 (Homo sapiens, UniProt O43614); experiment: Counterscreen assay for antagonists of the orexin 1 receptor (OX1R; HCRTR1): Fluorescence-based cell-based dose response assay for antagonists of the orexin 2 receptor (OX2R; HCRTR2), run by assay provider.; format: functional
T2 sequence (O43614 whole entry): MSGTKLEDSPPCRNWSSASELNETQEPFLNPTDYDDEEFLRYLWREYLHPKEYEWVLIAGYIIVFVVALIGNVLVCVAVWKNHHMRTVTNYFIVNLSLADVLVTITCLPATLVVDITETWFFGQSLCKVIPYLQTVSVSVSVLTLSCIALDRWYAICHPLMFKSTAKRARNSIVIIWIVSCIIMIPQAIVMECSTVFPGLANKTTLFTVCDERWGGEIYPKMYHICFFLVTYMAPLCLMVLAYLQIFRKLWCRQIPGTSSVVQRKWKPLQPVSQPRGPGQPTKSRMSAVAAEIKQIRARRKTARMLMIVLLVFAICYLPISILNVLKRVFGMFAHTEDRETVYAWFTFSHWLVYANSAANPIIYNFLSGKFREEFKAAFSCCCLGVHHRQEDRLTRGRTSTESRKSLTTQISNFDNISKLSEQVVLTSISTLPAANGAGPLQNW

Orexin receptor type 2 [5] = biological target: T2, Orexin receptor type 2; experiment: Counterscreen assay for antagonists of the orexin 1 receptor (OX1R; HCRTR1): Homogeneous Time Resolved Fluorescence (HTRF)-based cell-based dose response assay for antagonists of the orexin 2 receptor (OX2R; HCRTR2), run by assay provider.; format: functional
[6] = NIH-3T3 fibroblast cytotoxicity, dose response, cytotoxicity control, cell-based, fluorescence, Alamar Blue, secondary assay (AID 2327); format: functional;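 further: NIH-3T3 mouse fibroblasts cultured with fluconazole at 8 µg/mL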
[7] = luciferase reporter signal suppression in cells – H4 neuroglioma cells, luminescence, dose response (AID 1990); format: functional, cell-based
[8] = system: Streptococcus sp. 'group A'; experiment: Streptococcus pyogenes SK(-)GAS viability under kanamycin – luminescence, BacTiterGlo, confirmation, counter-screen for streptokinase expression inhibitor project, dose response (AID 1900); format: functional, organism-based
BJ [9] = experiment: BJ-TERT fibroblast viability loss – cell-based, RAS-independent, luminescence, dose response (AID 1933); format: functional; details: Homo sapiens
[10] = Luminescence Cell-Based Dose Response HTS to Identify Inhibitors of 5'UTR Stem-Loop Driven Prion Protein mRNA Translation in H4 Neuroglioblastoma Cells. [Related pubchem assays: 1827 (Project Summary), 1813 (Primary HTS)]; format: functional
[11] = alpha-synuclein stem-loop luciferase translation blockers – H4 neuroglioma cells, luminescence, confirmation (AID 1988); format: functional, cell-based
BJ [12] = experiment: cells; format: functional, cell-based; details: Homo sapiens
[13] = fluconazole-exposed Candida albicans growth modulators – fluorescence, retest, confirmation (AID 2467); format: functional, cell-based
BJ [14] = experiment: BJ-TERT-LT-ST fibroblast viability loss – cell-based, RAS-independent, luminescence, dose response (AID 1935); format: functional; details: Homo sapiens;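 further: BJ fibroblasts immortalized with TERT plus LT and ST oncogenes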
[15] = DRD fibroblast viability loss – cell-based, non-viral oncogenic, luminescence, dose response (AID 1934); format: functional; details: Homo sapiens
Streptococcus = experiment: GAS UMAA2166 growth inhibition – luminescence, BacTiterGlo, counter-screen for streptokinase expression inhibitor project, dose response (AID 1915); format: functional, organism-based;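 further: potency for reduction of bacterial viability or growth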
[16] = biological target: T3, Ubiquitin-conjugating enzyme E2 N (Homo sapiens, UniProt P61088); format: functional;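 further: Dose-response confirmation in a TR-FRET assay detecting UBC13-driven polyubiquitin chain formation, inhibition measured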
T3 sequence (P61088 whole entry): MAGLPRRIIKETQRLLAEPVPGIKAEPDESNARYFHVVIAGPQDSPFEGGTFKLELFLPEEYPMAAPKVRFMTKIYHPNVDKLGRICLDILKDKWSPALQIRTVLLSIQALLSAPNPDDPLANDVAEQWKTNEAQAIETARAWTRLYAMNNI

[17] = HEK-293T viability loss after treatment – luminescence, T-cell screen hits, cytotoxicity control for TCR NF-kB inhibitor project, dose response (AID 489026); format: functional, cell-based;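 further: cells exposed to compound about 14 hours before the viability readout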
Insulin-degrading enzyme [18] = biological target: T4, Insulin-degrading enzyme (Homo sapiens, UniProt P14735); experiment: recombinant IDE activation, cell-free – biochemical, fluorescence polarization, counter-screen for IDE activator project, dose response (AID 588681)
T4 sequence (P14735 whole entry): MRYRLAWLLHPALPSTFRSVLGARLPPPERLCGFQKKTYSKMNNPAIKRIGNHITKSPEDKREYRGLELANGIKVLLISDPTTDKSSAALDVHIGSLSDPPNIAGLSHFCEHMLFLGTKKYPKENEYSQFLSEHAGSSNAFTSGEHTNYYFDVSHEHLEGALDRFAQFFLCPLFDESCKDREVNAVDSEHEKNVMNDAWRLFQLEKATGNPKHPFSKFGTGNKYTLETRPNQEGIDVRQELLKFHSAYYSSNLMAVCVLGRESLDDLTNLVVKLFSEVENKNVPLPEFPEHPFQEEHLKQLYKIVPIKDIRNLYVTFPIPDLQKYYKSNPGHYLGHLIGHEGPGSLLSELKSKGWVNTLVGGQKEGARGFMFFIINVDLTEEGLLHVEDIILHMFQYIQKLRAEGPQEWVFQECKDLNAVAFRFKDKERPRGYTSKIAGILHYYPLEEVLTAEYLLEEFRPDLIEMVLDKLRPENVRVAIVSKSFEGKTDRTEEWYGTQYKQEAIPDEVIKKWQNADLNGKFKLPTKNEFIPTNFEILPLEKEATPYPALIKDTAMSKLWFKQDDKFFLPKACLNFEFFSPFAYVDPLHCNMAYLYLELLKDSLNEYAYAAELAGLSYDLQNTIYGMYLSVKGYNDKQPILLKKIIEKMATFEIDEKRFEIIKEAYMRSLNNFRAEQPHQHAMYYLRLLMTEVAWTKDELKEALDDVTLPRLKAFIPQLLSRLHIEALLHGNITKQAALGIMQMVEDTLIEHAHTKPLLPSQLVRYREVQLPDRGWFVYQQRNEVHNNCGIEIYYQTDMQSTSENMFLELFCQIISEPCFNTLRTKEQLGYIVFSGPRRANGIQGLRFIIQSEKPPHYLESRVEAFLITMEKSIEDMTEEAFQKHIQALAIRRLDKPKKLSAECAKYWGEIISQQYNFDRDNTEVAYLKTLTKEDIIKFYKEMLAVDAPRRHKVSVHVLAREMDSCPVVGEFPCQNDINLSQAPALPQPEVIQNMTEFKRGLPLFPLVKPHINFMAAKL

BJ [19] = experiment: growth inhibition of engineered Ras-driven BJ cells – cell-based, alamar blue fluorescence, cherrypicked samples, dose response (AID 2631); format: functional; details: Homo sapiens;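 further: confirmatory dose-response assay in RAS-dependent BJ fibroblasts engineered with TERT, LT and ST, with cytotoxicity read by fluorescence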
Insulin-degrading enzyme [20] = biological target: T4, Insulin-degrading enzyme; experiment: cellular IDE activation of Abeta substrate cleavage – fluorescence polarization, HEK cells, dose response (AID 588439); format: functional, cell-based
INS1 = experiment: INS-1E survival protection against cytokine death – cell-based, luminescence, retest, dose response (AID 449756); format: functional; details: Rattus norvegicus;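 further: cell death triggered by IL-1 beta plus TNF-alpha plus IFN-gamma mixture; protective hits raise ATP signal compared with cytokine alone wells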
HEK293 [21] = experiment: membrane integrity loss in HEK cells – cell-based, fluorescence, cytotoxicity control for IDE activator project, dose response (AID 588440); format: functional; details: Homo sapiens;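 further: cytotoxicity by LDH release measuring loss of membrane integrity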
HEK293 [22] = experiment: optical interference in Abeta FP readout, dose response, artefact control for IDE activator project, biochemical, fluorescence polarization (AID 588442); format: functional, cell-based; details: Homo sapiens
Paired box protein Pax-8 = Paired box protein Pax-8 (Homo sapiens, UniProt Q06710); experiment: PAX8 transcriptional activity inhibition in RMG-I – RMG-I cells, luciferase, cherry-pick, dose response (AID 687027); format: functional, cell-based;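 further: luciferase reporter driven by Pax8 target thyroperoxidase promoter measured by SteadyGlo luminescence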
[23] = reduced cellular PGC1a acetyl-lysine signal – cell-based, cherry-picked samples, dose response (AID 720514); format: functional;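 further: potency may reflect raised or lowered acetylation signal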
[24] = A549 cell cytotoxicity, dose response, cytotoxicity control, plate reader, cherry-pick, antagonist series (AID 743412); format: functional, cell-based
[25] = toxicity toward HepG2 liver cells – cell-based, plate reader, cherry-pick, antagonist series, cytotoxicity control, dose response (AID 743416); format: functional
[26] = blockers of bursicon-stimulated LGR2 cAMP reporter – cell-based, HEK293, CRE-luciferase reporter, cherry pick, set 2, dose response (AID 743343); format: functional;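 further: transfected cells were stimulated with diluted bursicon conditioned medium after compound addition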
[27] = blockade of melanocortin 4 receptor signaling – cell-based, plate reader, cherry pick, counter-screen for LGR2 antagonist project, dose response (AID 743444); format: functional;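 further: transfected HEK 293 cells stimulated with alpha-MSH peptide; potency of inhibitors of the alpha-MSH evoked signal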
[28] = viability loss in HEK293 cells – cell-based, plate reader, cherry-picked samples, cytotoxicity control, dose response (AID 743446); format: functional
[29] = biological target: T5, Calpain-2 catalytic subunit (Sus scrofa, UniProt P43367); experiment: m-calpain protease blockers, concentration series – biochemical, fluorogenic peptide substrate, dose response (AID 1420); format: functional
T5 sequence (P43367 whole entry): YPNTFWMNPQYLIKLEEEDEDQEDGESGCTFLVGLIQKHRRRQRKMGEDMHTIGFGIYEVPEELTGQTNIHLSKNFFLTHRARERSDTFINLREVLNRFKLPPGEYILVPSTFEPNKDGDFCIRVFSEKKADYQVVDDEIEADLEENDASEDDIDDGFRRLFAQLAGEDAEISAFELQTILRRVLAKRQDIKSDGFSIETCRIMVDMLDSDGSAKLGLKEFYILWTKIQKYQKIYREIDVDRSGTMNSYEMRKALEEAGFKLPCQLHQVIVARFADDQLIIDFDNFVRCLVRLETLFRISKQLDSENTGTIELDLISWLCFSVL

Chain of Paired box protein Pax-8 (Q06710 whole entry): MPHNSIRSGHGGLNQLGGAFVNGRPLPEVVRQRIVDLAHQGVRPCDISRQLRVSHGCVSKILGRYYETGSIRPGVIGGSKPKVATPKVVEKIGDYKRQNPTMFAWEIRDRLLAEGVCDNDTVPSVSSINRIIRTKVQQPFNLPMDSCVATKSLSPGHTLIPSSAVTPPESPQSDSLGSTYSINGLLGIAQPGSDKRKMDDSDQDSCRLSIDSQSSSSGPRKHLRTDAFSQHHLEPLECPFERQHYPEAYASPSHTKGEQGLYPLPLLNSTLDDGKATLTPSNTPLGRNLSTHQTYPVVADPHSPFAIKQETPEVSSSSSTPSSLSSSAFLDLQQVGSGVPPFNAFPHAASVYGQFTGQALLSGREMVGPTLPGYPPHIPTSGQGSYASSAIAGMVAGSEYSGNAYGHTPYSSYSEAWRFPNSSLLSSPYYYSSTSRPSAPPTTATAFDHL

N#CC(=C1CCCC1)c1nc(-c2ccccc2O)cs1
IC50 (CHO-K1): > 66.2 µM (inactive)
IC50 [1]: > 49.7 µM (inactive)
IC50 [2]: 6.33 µM (active)
IC50 [3]: 6.43 µM (active)
IC50 (Orexin receptor type 2 [4]): 31.6 µM (inactive)
IC50 (Orexin receptor type 2 [5]): 19.8 µM (inactive)

CNC[C@@H](CC1CCCCC1)NC[C@H](CC(C)C)NCCc1cccc(C(F)(F)F)c1
EC50 [6]: 7.53 µM (inconclusive)
EC50 [7]: > 120 µM (not active)
EC50 [8]: 2.79 µM (active)
EC50 (BJ [9]): 2.66 µM (inconclusive)
EC50 [10]: 8.87 µM (active)
EC50 [11]: 7.84 µM (active)
EC50 (BJ [12]): 7.22 µM (inconclusive)
EC50 [13]: > 38 µM (not active)
EC50 (BJ [14]): 2.08 µM (active)
EC50 [15]: 4.69 µM (active)
EC50 (Streptococcus): 9.26 µM (active)
IC50 [16]: > 20 µM (inactive)
IC50 [17]: 29 µM (inactive)
EC50 (Insulin-degrading enzyme [18]): > 54.7 µM (inactive)
EC50 (BJ [19]): 1.86 µM (inconclusive)
EC50 (Insulin-degrading enzyme [20]): 6.62 µM (active)
AC50 (INS1): 3.59 µM (active)
IC50 (HEK293 [21]): 6.35 µM (active)
EC50 (HEK293 [22]): > 54.7 µM (inactive)
AC50 (Paired box protein Pax-8): 9.93 µM (active)
AC50 [23]: 3.24 µM (active)
AC50 [24]: 4.66 µM (active)
AC50 [25]: 3.86 µM (active)
AC50 [26]: 14.6 µM (active)
AC50 [27]: 22.5 µM (active)
AC50 [28]: 7.81 µM (active)

O=C(CSc1ccc(-c2ccccc2)nn1)c1cccs1
IC50 [29]: > 50 µM (not active)
IC50 (CHO-K1): > 66.2 µM (inactive)
IC50 [1]: > 49.8 µM (inactive)
IC50 [2]: 1.08 µM (active)
IC50 [3]: 3.37 µM (active)
IC50 (Orexin receptor type 2 [4]): > 88.8 µM (inactive)
IC50 (Orexin receptor type 2 [5]): > 50 µM (inactive)
